Columns and labels:
[1] = Ability to inhibit corrosion by polarization resistance (Rp), iron electrodes; design: ability to inhibit corrosion: concentration or dose not given beside the values; conditions: for Rp / ability to inhibit corrosion: iron electrode, sodium salt; for Ability to inhibit corrosion After 20 min. / Ability to inhibit corrosion After 15 hrs / Ability to inhibit corrosion Peak: Electrode Fe
[2] = Ability to inhibit corrosion by polarization resistance (Rp), low-carbon steel electrodes (X65); conditions: Electrode X65

With `CC1(C)SCCN1C(=O)C=CC(=O)O` [Example 2, N-(2-carboxylvinylcarbonyl)-2,2-dimethylthiazolidine] the Rp ([1]; after the elapse of 20 minutes) was 200 Ω, the “ability to inhibit corrosion” value ([1]; after the elapse of 20 minutes) was 55.0% and the Rp ([1]; after the elapse of 15 hours) was 2000 Ω. For the same molecule, the “ability to inhibit corrosion” value ([1]; after the elapse of 15 hours) was 95.5%, the Rp ([1]; peak) was “about 4800 Ω” and the “ability to inhibit corrosion” value ([1]; peak) was 98.1%.

With `CC1(C)SCCN1C(=O)CCC(=O)O` [Example 3, N-(2-carboxylethylcarbonyl)-2,2-dimethylthiazolidine] the “Ability to inhibit corrosion After 20 min.” value [1] was 71.4%, the “Ability to inhibit corrosion After 15 hrs” value [1] was 97.8% and the “Ability to inhibit corrosion Peak” value [1] was 98.1%. For the same molecule, the “ability to inhibit corrosion” value ([1]; after the elapse of 25 minutes) was 71.4%, the “ability to inhibit corrosion” value ([1]; after the elapse of 15 hours) was 97.8% and the “ability to inhibit corrosion” value ([1]; peak) was 98.1%.

In the case of `CC1(C)SCCN1C(=O)C1CCCCC1C(=O)O` (stereo not drawn) [Example 4, N-(2-carboxylcyclohexylcarbonyl)-2,2-dimethylthiazolidine], the Rp ([1]; after the elapse of 20 minutes) is reported as 640 Ω, the “ability to inhibit corrosion” value ([1]; after the elapse of 20 minutes) is reported as 95.9% and the Rp ([1]; after the elapse of 15 hours) is reported as 5300 Ω. The “ability to inhibit corrosion” value ([1]; after the elapse of 15 hours) was 98.3%, the Rp ([1]; peak) was “about 7450 Ω” and the “ability to inhibit corrosion” value ([1]; peak) was 98.8%.

For `CC1(C)SCCN1C(=O)c1ccccc1C(=O)O` [Example 1, N-(2-carboxybenzoyl)-2,2-dimethylthiazolidine], the “Ability to inhibit corrosion After 20 min.” value [1] was 48%, the “Ability to inhibit corrosion After 15 hrs” value [1] was 96.3% and the “Ability to inhibit corrosion Peak” value [1] was 98.5%. The “ability to inhibit corrosion” value ([1]; after the elapse of 20 minutes) was 47.6%, the “ability to inhibit corrosion” value ([1]; after the elapse of 15 hours) was 96.3% and the “ability to inhibit corrosion” value ([1]; peak) was 98.5%. The “Ability to inhibit corrosion After 20 min.” value [2] was 71.0%, the “Ability to inhibit corrosion After 15 hrs” value [2] was 94.7% and the “Ability to inhibit corrosion Peak” value [2] was 97.2%.

From patent publication US6534659B2, “Sufidomaidocarboxylic acids, method for production thereof, and use therefor” (Nippon Shokubai Co., Ltd., priority 2000, dated 2003)
